Measurements published in US8507535B2 (Hoffmann-La Roche Inc., priority 2010, dated 2013).

Experiments:
human NK3 receptor = human NK3 receptor (Homo sapiens (Human), UniProt P29371); assay: [3H]SR142801 competition binding assay; conditions: membranes from HEK293 cells transiently expressing recombinant human NK3 receptor; [3H]SR142801 radioligand; second half of table, head prints nM; read-out: Ki (nM) hNK3
Method: [^3H]SR142801 Competition Binding Assay
hNK3 receptor binding experiment were performed using [^3H]SR142801 (Catalog No. TRK1035, specific activity: 74.0 Ci/mmol, Amersham, GE Healthcare UK limited, Buckinghamshire, UK) and membrane isolated from HEK293 cells transiently expressing recombinant human NK3 receptor. After thawing, the membrane homogenates were centrifuged at 48,000×g for 10 min at 4° C., the pellets were resuspended in the 50 mM Tris-HCl, 4 mM MnCl2, 1 μM phosphoramidon, 0.1% BSA binding buffer at pH 7.4 to a final assay concentration of 5 μg protein/well. For inhibition experiments, membranes were incubated with [^3H]SR142801 at a concentration equal to KD value of radioligand and 10 concentrations of the inhibitory compound (0.0003-10 μM) (in a total reaction volume of 500 μl) for 75 min at room temperature (RT). At the end of the incubation, membranes were filtered onto unitfilter (96-well white microplate with bonded GF/C filter preincubated 1 h in 0.3% PEI+0.3% BSA, Packard BioScience, Meriden, Conn.) with a Filtermate 196 harvester (Packard BioScience) and washed 4 times with ice-cold 50 mM Tris-HCl, pH 7.4 buffer. Nonspecific binding was measured in the presence of 10 μM SB222200 for both radioligands. The radioactivity on the filter was counted (5 min) on a Packard Top-count microplate scintillation counter with quenching correction after addition of 45 μl of microscint 40 (Can berra Packard S. A., Zurich, Switzerland) and shaking for 1 h. Inhibition curves were fitted according to the Hill equation: y=100/(1+(x/IC50)^nH), where nH=slope factor using Excel-fit 4 software (Microsoft). IC50 values were derived from the inhibition curve and the affinity constant (Ki) values were calculated using the Cheng-Prussoff equation Ki=IC50/(1+[L]/KD) where [L] is the concentration of radioligand and KD is its dissociation constant at the receptor, derived from the saturation isotherm. All experiments were performed in duplicate and the mean±standard error (SEM) of the individual Ki values was calculated.

[1] = phase II trial, cited from earlier work

Chain of human NK3 receptor (P29371 whole entry): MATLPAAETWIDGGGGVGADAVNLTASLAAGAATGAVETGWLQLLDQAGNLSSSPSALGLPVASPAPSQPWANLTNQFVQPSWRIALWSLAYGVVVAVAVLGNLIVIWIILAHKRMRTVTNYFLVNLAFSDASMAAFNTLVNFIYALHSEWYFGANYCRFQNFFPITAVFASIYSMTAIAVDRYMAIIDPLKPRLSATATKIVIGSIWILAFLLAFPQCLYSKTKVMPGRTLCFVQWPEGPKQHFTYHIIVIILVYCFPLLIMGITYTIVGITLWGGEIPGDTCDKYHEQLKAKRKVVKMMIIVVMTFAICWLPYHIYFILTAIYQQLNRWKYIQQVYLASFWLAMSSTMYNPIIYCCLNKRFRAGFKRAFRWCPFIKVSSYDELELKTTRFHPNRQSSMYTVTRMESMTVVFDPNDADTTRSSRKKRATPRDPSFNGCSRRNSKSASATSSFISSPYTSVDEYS

Row | Ki (human NK3 receptor) [nM] | SMILES | activity on positive symptoms of schizophrenia ([1]; altered behaviour, delusion, hallucinations, extreme emotions, excited motor activity, incoherent speech) | activity on negative symptoms of schizophrenia ([1]; depression, anhedonia, social isolation, memory and attention deficits)
1 | 11.4 | COc1ccc(N2CCC(C(=O)N3C[C@H](c4ccc(Cl)cc4)[C@@](C)(COc4ccc(Cl)cn4)C3)CC2)nn1 [Example 26, [(3R,4R)-4-(4-Chloro-phenyl)-3-(5-chloro-pyridin-2-yloxymethyl)-3-methyl-pyrrolidin-1-yl]-[1-(6-methoxy-pyridazin-3-yl)-piperidin-4-yl]-methanone] | – | –
2 | – | CC(=O)N(C)C1(c2ccccc2)CCN(CCC[C@]2(c3ccc(Cl)c(Cl)c3)CCCN(C(=O)c3ccccc3)C2)CC1 [SR 142,801, Osanetant] | active on positive symptoms of schizophrenia | inactive in the treatment of negative symptoms
